In patent US20240327456A1, “CANCER THERAPEUTICS” (UNIVERSITAT DE BARCELONA, priority 2021, published 2024):
Square brackets hold non-standard residues; d marks the D form. Peptide text beside a SMILES is read from it. * marks the point of attachment. Chg = N[CH](C(=O)O)C1CCCCC1; X1 = C1CCC2(CC1)CCN(*)CC2; PhAc = O=C(Cc1ccccc1)*

Columns and labels:
[1] = Solubility in PBS with 15% β-cyclodextrin; format: physicochemical; conditions: 1 mM, 24 hours agitation, supernatant by HPLC; mean±SD
Protocol: xxxxx Furthermore, an additional effort was done to reevaluate those peptidomimetics from the first generation that were not soluble in the in vitro assay conditions or formed aggregates as described above when incubated with the RPE cells.
We then put these peptidomimetics under constant agitation for 24 hours. […] Data are expressed as the mean±SD.

[2] = Solubility when diluted in cell medium (in vitro assay conditions); conditions: cell culture assay conditions
[3] = test system: pancreatic adenocarcinoma human cell lines (MPanc-96, HPAF-II, PA-TU-8902, SW1990, PA-TU 8988T, PANC-1); format: cell-based; conditions: 24 h
Protocol: (§1) Cells cultured in 10% FCS were treated with compound (I) in a dose range from 0 to 25 µM and incubated for 24 h, when cell viability was determined by MTS assay. Experiment was repeated 3 times. Differences were assessed using one-way ANOVA and Tukey Multiple Comparisons Test and considered significant when p≤0.05.
(§2) 10,000 cells in 50 μL of 10% FBS-containing medium, were cultured for 24 h and then treated with the drugs (50 μL final volume) for a further 24 h in each well of a 96-well plate (100 μL final volume). MTS viability assay (CellTiter 96® Aqueous One Solution Cell Proliferation Assay, Promega G3580) was performed following the manufacturer's specifications. The absorbance of each well was measured with a multimode plate reader (Spark, Tecan) at 490 nm. The percentage of cell viability was calculated by dividing the absorbance of each well by the average absorbance of the control wells (which had no significant deviation when Student's t-test was applied).
We next incubated IPR-473 at several concentrations with different cancer cell lines and a normal cell line (-hTERT-RPE cells). Cell viability was measured by a MTS cell proliferation assay. […] Cells were placed in a 96-well plate culture containing 10% FBS (Bilogical Industries)-containing medium. (10000 cell per well). These cells were then cultured for 24 hours and then treated with IPR-473 at concentrations of 10 μM, 15 μM, 20 μM and 25 μM for a further 24 hours incubation.
The different cell lines used included human pancreatic cancer cells MPANC-96, human pancreatic adenocarcinoma cells HPAF-II, human pancreatic grade II adenocarcinoma PA-TU, human pancreatic ductaladenocarcinoma SW1990, human pancreas adenocarcinoma 8988-T and human pancreatic ductal carcinoma PANC-1. Each of these comprises a pancreatic tumor cell line. The control as stated was hTERT-RPE cells and that are not cancerigenous.

hTERT-RPE cells = format: cell-based, human; conditions: at the concentrations of the tumor cell IC50 (approximately 20 μM), 24 h, MTS
Protocol: as §1, §2
We next incubated IPR-473 at several concentrations with different cancer cell lines and a normal cell line (-hTERT-RPE cells). Cell viability was measured by a MTS cell proliferation assay. […] Cells were placed in a 96-well plate culture containing 10% FBS (Bilogical Industries)-containing medium. (10000 cell per well). […]

[4] = target: T1, HA-KRASG12V with C-RAF or with PI3K (Homo sapiens, UniProt P01116, G12V); assay: Co-immunoprecipitation of HA-KRASG12V with C-RAF or PI3K in Hela cells; format: cell-based; conditions: 100 µM for 2 h, EGF 10 min, starved Hela cells expressing HA-KRASG12V
T1 construct: expressed in transfected cells; host or cells: HeLa cells, Lipofectamine 2000, plasmid pEF-HA-KRASG12V
Protocol: Immunoprecipitation was performed with anti-HA antibodies and Western blot of the bound (BO) and input (IN) fractions with anti-p110αPI3K and anti-C-RAF. Experiments were repeated at least three times.
Cells were seeded in a media containing 10% FBS for 24 h and were serum starved for the next 24 h. Afterwards, they were incubated with different concentrations of the compounds for 2 h. A successive treatment for 10 min with EGF (50 ng/mL; Sigma-Aldrich) was performed in order to activate cell signaling.
HeLa cells were transfected with pEF-HA-KRASG12V plasmid, obtained as described in C. Lopez-Alcala et al. (“Identification of essential interacting elements in K-Ras/calmodulin binding and its role in K-Ras localization.”; J. Biol. Chem. 2008; April 18; 283(16):10621-31. doi: 10.1074/jbc.M706238200. Epub 2008 Jan. 8. PMID: 18182391). Lipofectamine®2000 Transfection Reagent (Invitrogen) was used as a transfection method following the manufacturer's instructions.
Cells were transfected with pEF-HA-KRASG12V plasmid for 24 h and starved for the next 24 h before treatment with the peptides and EGF. Next, an IP with anti-HA antibody crosslinked to agarose beads was performed. […]

Structure (SMILES)	Conc. in PBS β-cyclodextrin 15% [1] [µM]	Solubility when diluted in cell medium [2]	IC50 [3] [µM]	normal cells affected (hTERT-RPE cells)	PI3K and c-RAF1 interaction with KRAS (co-immunoprecipitation) [4]
CC(C)CC(NC(=O)C(Cc1c[nH]c2ccccc12)NC(=O)C(NC(=O)C(CCCCN)NC(=O)Cc1ccccc1)C1CCCCC1)C(=O)N1CCC2(CCCCC2)CC1 (centres unmarked) [IP-14-06] (PhAc-K[Chg]WL-X1; configuration not given here)	844 ± 4	not soluble			
CC(C)C[C@H](NC(=O)[C@H](CN)N(C)C(=O)CCN(C)C(=O)[C@H](Cc1ccc(-c2ccccc2)cc1)NC(=O)C(c1ccccc1)c1ccccc1)C(=O)N1CCCC1 [compound of formula (I), (S)-N-(3-(((S)-3-amino-1-((S)-4-methyl-1-oxo-1-(pyrrolidin-1-yl)pentan-2-ylamino)-1-oxopropan-2-yl)(methyl)amino)-3-oxopropyl)-3-(biphenyl-4-yl)-2-(2,2-diphenylacetamido)-N-methylpropanamide]			~20	less than 5%	reduced PI3K and c-RAF1 interaction with KRAS
